Converted amounts (≈) assume the structure as drawn.

Holding throughout (type): functional
The test system of assay [1] is Bacillus cereus. Briefly: Antibacterial activity against Bacillus cereus ATCC 10702.
For assay [2], the system named is Staphylococcus epidermidis. The assay can be described thus: Antibacterial activity against Staphylococcus epidermidis ATCC 12228.
Assay [3] has as its system Escherichia coli. The assay can be described thus: Antibacterial activity against Escherichia coli ATCC 25922.

In the case of `O=C(N[C@H](CO)[C@H](O)c1ccc([N+](=O)[O-])cc1)C(Cl)Cl` [CHLORAMPHENICOL], the values for the MIC in assay [1], in assay [2] and in assay [3] were 8 µg/mL (≈ 24.8 µM), 4 µg/mL (≈ 12.4 µM) and 64 µg/mL (≈ 198 µM), respectively.
Taken in the same sequence, the figures for `C[C@@H]1CC=C2[C@@H](CC[C@H]3C(C)(C)[C@H](O)CC[C@@]23C)[C@]1(C)Cc1cc(C(=O)O)ccc1O` [NOSCOMIN] were 32 µg/mL (≈ 75 µM), 8 µg/mL (≈ 18.8 µM) and 128 µg/mL (≈ 300 µM).

The record behind these values is ChEMBL document CHEMBL1141817, “A novel extracellular diterpenoid with antibacterial activity from the cyanobacterium Nostoc commune” (1999).
